The values that follow come from patent publication US11655242B2, “Glucagon-like peptide1 receptor agonists” (Eli Lilly and Company, priority 2019, dated 2023).

The target in one data set is PDE10A1 (Homo sapiens (Human), UniProt Q9Y233). The data set can be described thus: Phosphodiesterase 10 (PDE10) Enzyme Activity Assay. Format: biochemical. Particulars: read-out: IC50 (μM), n = 1, inhibition of PDE10A1; SPA, [3H]-cGMP substrate, maximal compound concentration 10 μM. As for the experimental part:
Phosphodiesterase 10 (PDE10) Enzyme Activity Assay
To generate phosphodiesterase 10A1 (PDE10A1) protein, a full-length PDE10A1 clone corresponding to GenBank ID AAD32595.1 is cloned into pFastBac1 (Invitrogen). The PDE10A1 protein with a C-terminal FLAG-tag is expressed by baculoviral infection of insect cells and purified using anti-FLAG M2-agarose (Sigma) and size exclusion chromatography on a Superdex 200 column (GE Healthcare) and stored at −80° C. in small aliquots (20 mM Tris-HCl, Ph 7.5, 150 mM NaCl, 10% Glycerol).
PDE10A1 enzyme activities are measured with a yittrium silicate based scintillation proximity assay (SPA) that detects radioactive nucleotide monophosphates but not cyclic monophosphates. The assay buffer is composed of 50 mM Tris-HCl pH 7.5, 8 mM MgCl2, 3.4 mM EDTA, and 0.1% BSA (Sigma). Assays are conducted in 384 well plates (3706, Corning) in a total volume of 50 μl: comprised of 24 μl PDE10A1 enzyme, 1 μl test compound and 25 μl of cyclic nucleotide. Test compounds are diluted in pure DMSO using ten-point concentration response curves with a 3-fold dilution factor and 1 μl is acoustically dispensed into assay plates using the Echo555 (LabCyte). 24 μl PDE10A1 protein is incubated with 1 μl compound for 30 min before the reaction is started by the addition of [8-^3H]-cGMP substrate (6.5 Ci/mmol, Perkin Elmer). Final concentration of components is […], 80 nM (3H-cGMP), and 2% DMSO in assay buffer. Maximal compound concentration in the reaction mixture is 10 μM. Reactions are incubated for 60 min at RT before quenching and the addition of […] SPA beads (RPNQ0150, Perkin Elmer). Bead bound radioactivity (product) is quantified 12 h later with a Microbeta counter (Perkin Elmer). Data is normalized to % inhibition and IC50 values are calculated using the 4 parameter logistic equation as described (Campbell R. M.; Dymshitz, J.; Eastwood, B. J.; et al. “Data Standardization for Results Management.” In: Sittampalam, G. S.; Grossman, A.; Brimacombe, K.; et al.; eds. Assay Guidance Manual. Bethesda (Md.): Eli Lilly & Company and the National Center for Advancing Translational Sciences; 2004.).

A further data set concerns the target human GLP-1R (Homo sapiens (Human), UniProt P43220). The data set can be described thus: Human GLP-1 Receptor HEK293 Cell cAMP Assay. Particulars: for EC50: EC50 (nM) ± SEM (n), intracellular cAMP response, relative EC50; for Emax: percent of maximal response with human GLP-1(7-36)NH2.
In the next data set the target is hERG K+ channel (Homo sapiens (Human), UniProt Q12809). The data set can be described thus: Human hERG K+ Channel Affinity Radioligand Binding Assay. To be noted: pH 7.4, probe [3H]dofetilide, 3 nM, read-out: Percent inhibition (%) at 100 μM compound concentration, n = 1. As for the experimental part: Human hERG K^+ Channel Affinity Radioligand Binding Assay
hERG K+ channel, sequence (Q12809 whole entry): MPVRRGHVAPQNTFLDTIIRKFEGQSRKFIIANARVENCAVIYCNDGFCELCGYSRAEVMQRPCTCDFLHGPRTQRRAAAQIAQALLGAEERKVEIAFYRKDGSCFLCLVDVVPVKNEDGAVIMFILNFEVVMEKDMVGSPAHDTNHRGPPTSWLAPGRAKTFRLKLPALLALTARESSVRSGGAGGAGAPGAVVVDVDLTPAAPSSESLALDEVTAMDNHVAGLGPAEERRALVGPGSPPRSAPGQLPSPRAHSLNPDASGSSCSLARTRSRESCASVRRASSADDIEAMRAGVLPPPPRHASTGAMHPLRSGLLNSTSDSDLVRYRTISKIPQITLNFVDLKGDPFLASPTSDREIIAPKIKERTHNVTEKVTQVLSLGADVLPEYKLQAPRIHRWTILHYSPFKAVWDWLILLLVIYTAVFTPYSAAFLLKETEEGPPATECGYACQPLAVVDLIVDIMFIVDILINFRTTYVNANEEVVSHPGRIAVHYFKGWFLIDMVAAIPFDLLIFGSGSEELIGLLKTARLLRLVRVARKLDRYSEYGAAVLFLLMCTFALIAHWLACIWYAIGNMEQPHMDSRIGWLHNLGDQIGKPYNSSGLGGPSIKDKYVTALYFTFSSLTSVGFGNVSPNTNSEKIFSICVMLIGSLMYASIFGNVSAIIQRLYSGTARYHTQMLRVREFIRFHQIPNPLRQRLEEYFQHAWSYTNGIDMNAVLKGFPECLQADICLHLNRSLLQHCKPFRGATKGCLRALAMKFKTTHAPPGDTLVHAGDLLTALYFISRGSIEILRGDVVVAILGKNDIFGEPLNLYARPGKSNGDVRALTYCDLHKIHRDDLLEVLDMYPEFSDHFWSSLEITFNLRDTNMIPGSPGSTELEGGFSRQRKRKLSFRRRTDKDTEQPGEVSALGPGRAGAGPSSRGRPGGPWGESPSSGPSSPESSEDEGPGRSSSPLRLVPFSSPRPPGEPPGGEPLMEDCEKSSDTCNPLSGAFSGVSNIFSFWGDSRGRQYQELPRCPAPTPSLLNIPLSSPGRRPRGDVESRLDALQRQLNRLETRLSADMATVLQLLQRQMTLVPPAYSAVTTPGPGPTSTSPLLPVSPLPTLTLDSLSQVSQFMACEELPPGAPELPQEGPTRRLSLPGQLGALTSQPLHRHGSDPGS
The affinity of compounds for the human hERG K^+ channel in transfected HEK-293 cells is evaluated in a radioligand binding assay as described herein. Cell membrane homogenates (about […]) are incubated for 60 min at 22° C. with 3 nM [^3H]dofetilide in the absence or presence of the test compound in a buffer containing 50 mM Tris-HCl (pH 7.4), 10 mM KCl and 1 mM MgCl2. The assay is carried out in a 96-well plate format with a volume of 200 μL, containing a maximum of 1% DMSO from initial solubilization of test compound. Following incubation, the samples are filtered rapidly under vacuum through glass fiber filters (GF/B, Packard) presoaked with 0.3% PEI and rinsed several times with ice-cold 50 mM Tris-HCl, 10 mM KCl and 1 mM MgCl2 using a 96-sample cell harvester (Unifilter, Packard). The filters are dried and then counted for radioactivity in a scintillation counter (Topcount, Packard) using a scintillation cocktail (Microscint 0, Packard).
In general terms: Block of hERG is tested as a sign of cardiac risk.

A short description of data set [1]: Non-Human Primate (NHP) Pharmacokinetics. The format is in vivo. Particulars: cynomolgus monkey, plasma, IV 0.5 mg/kg, fasted male cynomolgus monkeys; for Vd: steady-state, read-out: Volume of distribution. As for the experimental part:
Non-Human Primate (NHP) Pharmacokinetics:
The test compound is administered to fasted male cynomolgus monkeys intravenously (IV) at 0.5 mg/kg (using a dose volume of 1 mL/kg). Serial blood samples are collected at 0.08, 0.25, 0.5, 1, 2, 4, 8, 12, and 24 hours post dose for IV bolus. After treatment with an EDTA […], plasma is obtained by centrifugation and stored at −70° C. until analysis by LC-MS/MS. Test article concentration is determined in plasma. Noncompartmental analysis is used to calculate plasma clearance and steady-state volume of distribution.

Data set [2] has as its system mice expressing the human GLP-1R. The data set can be described thus: In Vivo Intraperitoneal Glucose Tolerance Test in Human GLP-1R Knock-in Mice. To be noted: Mus musculus; read-out: Blood glucose lowering ED50. As for the experimental part:
In Vivo Intraperitoneal Glucose Tolerance Test in Human GLP-1R Knock-in Mice
The potency of the exemplified compounds to lower the concentration of blood glucose in vivo is determined using mice expressing the human GLP-1R (NCBI accession number NP_002053) from the mouse Glp-1r genetic locus (Jun, L. S., et al., PLoS One. 2014 9:e93746). Overnight fasted mice are orally administered the test compound solubilized in 10% Kolliphor® (HS15) in Polyetheylene Glycol 400 (PEG400). One hour post-dose, the animals are administered glucose by intraperitoneal injection (2 g/kg), and blood glucose levels are measured intermittingly over the next two hours using glucometers. A dose range of the test compound is delivered, and area under the curve calculations for each dose group are determined and fit to a four-parameter logistic model for calculating in vivo potency as an ED50 with a 95% confidence interval.

[3] abbreviates: HEK293 cell line with 104 fmol/mg expression density of GLP-1R.
The mark [4] stands for this setting: HEK293 cell line with 581 fmol/mg expression density of GLP-1R.
Where [5] appears, read: HEK293, read-out: Emax (%) ± SEM (n), HEK293 cell line with 104 fmol/mg expression density of GLP-1R.
[6] abbreviates: HEK293, read-out: Emax (%) ± SEM (n), HEK293 cell line with 581 fmol/mg expression density of GLP-1R.

Where two headings read alike, the source gives them in different places. Where only a bound is given, the exact number is not on record here.

PDE10A1, sequence (Q9Y233 other isoform, or with tags, fused parts or gaps): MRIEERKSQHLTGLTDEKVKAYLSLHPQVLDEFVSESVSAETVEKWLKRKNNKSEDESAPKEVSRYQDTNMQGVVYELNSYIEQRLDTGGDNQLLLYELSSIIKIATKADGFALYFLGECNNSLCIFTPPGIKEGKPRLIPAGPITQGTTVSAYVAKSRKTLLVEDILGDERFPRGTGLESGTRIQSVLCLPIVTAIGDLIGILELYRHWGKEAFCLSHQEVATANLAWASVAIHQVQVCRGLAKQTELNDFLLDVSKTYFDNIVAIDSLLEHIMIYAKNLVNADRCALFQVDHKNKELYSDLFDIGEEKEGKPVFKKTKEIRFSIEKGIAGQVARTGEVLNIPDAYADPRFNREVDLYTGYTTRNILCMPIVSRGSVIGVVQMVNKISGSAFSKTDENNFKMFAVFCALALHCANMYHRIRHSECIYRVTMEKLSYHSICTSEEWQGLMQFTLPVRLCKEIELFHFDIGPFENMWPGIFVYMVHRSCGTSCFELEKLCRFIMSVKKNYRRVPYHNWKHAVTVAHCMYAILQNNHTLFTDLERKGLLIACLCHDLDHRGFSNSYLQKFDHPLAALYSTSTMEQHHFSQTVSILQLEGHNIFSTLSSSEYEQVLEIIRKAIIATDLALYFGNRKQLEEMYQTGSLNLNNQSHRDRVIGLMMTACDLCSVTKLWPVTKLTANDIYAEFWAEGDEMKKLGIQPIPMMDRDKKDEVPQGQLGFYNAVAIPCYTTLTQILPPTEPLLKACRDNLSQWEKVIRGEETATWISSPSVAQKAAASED
human GLP-1R, sequence (P43220 24-463): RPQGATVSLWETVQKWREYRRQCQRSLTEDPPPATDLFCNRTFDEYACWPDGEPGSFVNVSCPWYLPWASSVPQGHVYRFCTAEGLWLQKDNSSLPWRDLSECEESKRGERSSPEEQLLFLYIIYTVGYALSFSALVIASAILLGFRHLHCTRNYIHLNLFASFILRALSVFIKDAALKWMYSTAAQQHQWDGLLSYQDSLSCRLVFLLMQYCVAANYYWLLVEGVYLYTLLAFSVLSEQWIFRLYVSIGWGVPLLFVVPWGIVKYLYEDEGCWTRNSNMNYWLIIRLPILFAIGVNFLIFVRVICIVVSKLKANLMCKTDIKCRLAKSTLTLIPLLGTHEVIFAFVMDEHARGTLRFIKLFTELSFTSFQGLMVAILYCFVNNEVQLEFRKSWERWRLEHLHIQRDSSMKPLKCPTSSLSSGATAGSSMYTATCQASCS

Broadly, the IC50 is the point on the concentration scale where inhibition reaches its midpoint. One may read the EC50 as the midpoint of the concentration-response curve. Low readings indicate greater potency, high ones weaker potency. Consider `N#Cc1ccc(COc2cccc(-c3cc(F)c(Cc4nc5ccc(C(=O)O)cc5n4C[C@@H]4CCO4)c(F)c3)n2)c(F)c1` [Example 4, 2-[[4-[6-[(4-Cyano-2-fluoro-phenyl)methoxy]-2-pyridyl]-2,6-difluoro-phenyl]methyl]-3-[(2S)-oxetan-2-ylmethyl]benzimidazole-5-carboxylic Acid], for which the IC50 at PDE10A1 came to 5.41 µM. Also, the half-maximal effective concentration (EC50) on human GLP-1R (setting [3]) turned out to be 9.59 ± 2.36 nM; at human GLP-1R (setting [4]) it was 3.99 ± 0.378 nM. Besides, the Emax at human GLP-1R (setting [5]) stood at 78.3 ± 5.1%; on human GLP-1R (setting [6]) it was 99.2 ± 4%.

A word on the clearance: it is a measure of how efficiently the substance is removed, as volume per time. Read a low clearance as a low capacity for elimination. What is called ED50 is the dose at which the effect has come halfway, by size or by number of responders. `N#Cc1ccc(COc2cccc(-c3ccc(Cc4nc5ccc(C(=O)O)cc5n4C[C@@H]4CCO4)c(F)c3)n2)c(F)c1` [Example 3, 2-[[4-[6-[(4-Cyano-2-fluoro-phenyl)methoxy]-2-pyridyl]-2-fluoro-phenyl]methyl]-3-[(2S)-oxetan-2-ylmethyl]benzimidazole-5-carboxylic Acid]: on PDE10A1, the IC50 is more than 10 µM. The inhibition at 60 min, 100 µM on hERG K+ channel came to 37%. In data set [1], the clearance is 6 mL/min/kg and the Vd was determined as 1.1 L/kg. Further, the ED50 in data set [2] amounted to 0.06 mg/kg.

With `Cc1c(-c2cccc(OCc3ccc(C#N)cc3F)n2)ccc(Cc2nc3ccc(C(=O)O)cc3n2C[C@@H]2CCO2)c1F` [Example 5, 2-[[4-[6-[(4-Cyano-2-fluoro-phenyl)methoxy]-2-pyridyl]-2-fluoro-3-methyl-phenyl]methyl]-3-[[(2S)-oxetan-2-yl]methyl]benzimidazole-5-carboxylic Acid], the values for the EC50 at human GLP-1R (setting [3]) and on human GLP-1R (setting [4]) were 23.6 ± 5.43 nM and 6.45 ± 0.934 nM, respectively. Further, the figures for the Emax on human GLP-1R (setting [5]) and at human GLP-1R (setting [6]) were 76.7 ± 3.88% and 105 ± 2.43%, respectively.

Regarding `Cc1cc(Cc2nc3ccc(C(=O)O)cc3n2C[C@@H]2CCO2)c(F)cc1-c1cccc(OCc2ccc(C#N)cc2F)n1` [Example 2, 2-[[4-[6-[(4-Cyano-2-fluoro-phenyl)methoxy]-2-pyridyl]-2-fluoro-5-methyl-phenyl]methyl]-3-[[(2S)-oxetan-2-yl]methyl]benzimidazole-5-carboxylic Acid], on PDE10A1, the IC50 came out at 7.43 µM. Moreover, the inhibition at 60 min, 100 µM at hERG K+ channel turned out to be 54%. Also, the EC50 was 3.97 ± 0.61 nM at human GLP-1R (setting [3]) and 1.14 ± 0.315 nM at human GLP-1R (setting [4]). Besides, the Emax was 79.2 ± 3.2% on human GLP-1R (setting [5]) and 104 ± 4.35% on human GLP-1R (setting [6]). The clearance in data set [1] stood at 11 mL/min/kg. The Vd in data set [1] is 1.1 L/kg. In data set [2], the ED50 was determined as 0.07 mg/kg.

`Cc1cc(Cc2nc3ccc(C(=O)O)cc3n2C[C@@H]2CCO2)ccc1-c1cccc(OCc2ccc(C#N)cc2F)n1` [Example 1, 2-[[4-[6-[(4-Cyano-2-fluoro-phenyl)methoxy]-2-pyridyl]-3-methyl-phenyl]methyl]-3-[[(2S)-oxetan-2-yl]methyl]benzimidazole-5-carboxylic Acid]: the IC50 at PDE10A1 is more than 10 µM. On hERG K+ channel, the inhibition at 60 min, 100 µM came to 0%. Besides, the figures for the EC50 on human GLP-1R (setting [3]) and at human GLP-1R (setting [4]) were 20 ± 3.25 nM and 9.33 ± 1.36 nM, respectively. In addition, the Emax at human GLP-1R (setting [5]) came out at 71.4 ± 2.26%; on human GLP-1R (setting [6]) it was 99.5 ± 2.53%. Further, the clearance in data set [1] came out at 13 mL/min/kg. The Vd in data set [1] was 1.2 L/kg. Also, the ED50 in data set [2] was 0.09 mg/kg.
